In patent US11524021B2, “Use of ginsenoside M1 for manufacturing medicament for treating oral cancer” (priority 2018, dated 2022):

Key:
Assay type in all cases: cell-based
[1] = test system: human oral cancer cells SAS; test: Viability of human oral cancer SAS cells, Trypan blue exclusion; conditions: 5˜20 μg/ml, 24 h
Protocol: Human oral cancer cell line SAS cells (FIG. 1A) or OECM-1 cells (FIG. 1B) were incubated for 24 h with ginsenoside M1 (5˜20 μg/ml), ginsenoside Rh2 (5˜20 μg/ml) or vehicle (0.1% DMSO). The live cell numbers were counted by Trypan blue exclusion method. The data were expressed as mean±SD; n=3. *, ** and *** indicate a significant difference at the level of p<0.05, p<0.01 and p<0.001, respectively, compared to vehicle-control cells. (One-way ANOVA with Dunnett's multiple comparisons test).
Plate 5×10^5 human oral cancer cells SAS per 6-cm dish in 2 ml of culture medium and were grown overnight at 37° C. in a 5% CO2 incubator. The cells were incubated for 24 h with ginsenoside M1 (5˜20 μg/ml), ginsenoside Rh2 (5˜20 μg/ml) or vehicle. Each group contains a final DMSO concentration of 0.1%. Thereafter, the cell numbers were counted by Trypan blue exclusion method. […] The data were expressed as mean±SD; n=3. *, ** and *** indicate a significant difference at the level of p<0.05, p<0.01 and p<0.001, respectively, compared to vehicle-control cells. (One-way ANOVA with Dunnett's multiple comparisons test).

[2] = test system: human oral cancer cells OECM-1; test: Cell cycle distribution, PI staining by flow cytometry; conditions: 10˜20 μg/ml, 24 h
Protocol: (§1) Human oral cancer cell line OECM-1 cells were incubated for 24 h with ginsenoside M1 (10˜20 μg/ml), 50 μM cistaplatin (CDDP) or vehicle (0.1% DMSO). (FIG. 3A) The apoptotic DNA breaks was assayed by terminal deoxynucleotidyl transferase dUTP nick end labeling (TUNEL) assay using flow cytometry. (FIG. 3B) The cell cycle distribution was determined by PI staining using flow cytometry. (FIG. 3C) The apoptosis level was measured by PI/Annexin V double staining assay using flow cytometry. (FIG. 3D) The activation levels of caspase-9 and caspase-3 were measured by detecting the degradation of pro-caspase-9 and pro-caspase-3 using Western blotting. […] (One-way ANOVA with Dunnett's multiple comparisons test).
(§2) To gain further insight into the mode of action of ginsenoside M1, three assays targeting hallmarks of apoptosis, namely (1) the apoptotic DNA breaks assayed by terminal deoxynucleotidyl transferase dUTP nick end labeling (TUNEL) assay, (2) the cell cycle assayed by flow cytometry after propidium iodide (PI)-staining nuclei, (3) the PI/Annexin V double staining assay, and (4) caspase activation were performed. Plate 1×10^6 human oral cancer cells OECM-1 per 6-cm dish in 2 ml of culture medium and were grown overnight at 37° C. in a 5% CO2 incubator. The cells were incubated for 24 h with ginsenoside M1 (10˜20 μg/ml), 50 μM cistaplatin (CDDP) or vehicle. Each group contains a final DMSO concentration of 0.1%. Thereafter, three assays were performed. […] The cells in sub-G1 phase increased after treatment with ginsenoside M1 and CDDP. (FIG. 3B). […] The data were expressed as mean±SD; n=3. ** and *** indicate a significant difference at the level of p<0.01 and p<0.001, respectively, compared to vehicle-control cells. (One-way ANOVA with Dunnett's multiple comparisons test).

[3] = test system: human oral cancer cells OECM-1; test: PI/Annexin V double staining assay by flow cytometry; conditions: 24 h
Protocol: as §1, §2

[4] = test system: human oral cancer SAS cells; test: Caspase-9 and caspase-3 activation, degradation of pro-caspases by Western blotting; conditions: 10˜20 μg/ml, 24 h
[5] = test system: human oral cancer cells SAS; test: Colony formation of SAS cells; conditions: 5˜20 μg/ml, 10 days
Protocol: FIGS. 4A-4B show ginsenoside M1 reduced the colony formation ability of human oral cancer cells. Human oral cancer cell line SAS cells (FIG. 4A) or OECM-1 cells (FIG. 4B) were incubated for 10 days with ginsenoside M1 (5˜20 μg/ml) or vehicle (0.1% DMSO). The cells were fixed in 4% ice-cold paraformaldehyde and stained with 0.1% crystal violet, and the colonies were counted. The data were expressed as mean±SD; n=4. * and *** indicate a significant difference at the level of p<0.05 and p<0.001, respectively, compared to vehicle-control cells. (One-way ANOVA with Dunnett's multiple comparisons test).
Plate 150 human oral cancer cells SAS or OECM-1 per 6-cm dish in 3 ml of culture medium and were grown overnight at 37° C. in a 5% CO2 incubator. The cells were incubated for 10 days with ginsenoside M1 (5˜20 μg/ml) or vehicle. The cells were changed for fresh medium containing the same concentration of ginsenoside M1 at day 5. The cells were fixed in 4% ice-cold paraformaldehyde for 15 min at […], and stained with 0.1% crystal violet 10 min at room temperature. […] The data were expressed as mean±SD; n=4. * and *** indicate a significant difference at the level of p<0.05 and p<0.001, respectively, compared to vehicle-control cells. (One-way ANOVA with Dunnett's multiple comparisons test).

[6] = test system: human oral cancer SAS cells; test: Migration of SAS cells, wound healing assay; conditions: 24 h
Protocol: FIGS. 5A-5B show ginsenoside M1 reduced the migration ability of human oral cancer cells. Human oral cancer cell line SAS cells (FIG. 5A) or OECM-1 cells (FIG. 5B) were cultured in 6-cm dish until the cells reached 100% confluence forming a monolayer. A clear zone was created by scratching using a sterile 200-μl pipette tip. The cells were incubated for 24 h (SAS cells) or 18 h (OECM-1 cells) with ginsenoside M1 (5˜10 μg/ml) or (0.1% DMSO). The migration distance was measured and compared to the vehicle-control cells. The data were expressed as mean±SD; n=3. *** indicates a significant difference at the level of p<0.001, compared to vehicle-control cells. (One-way ANOVA with Dunnett's multiple comparisons test).
The cell migration ability was measured by wound healing assay. Plate 5×10^6 human oral cancer SAS cells or OECM-1 cells per 6-cm dish in 2 ml of culture medium and were grown overnight at 37° C. in a 5% CO2 incubator until the cells reached 100% confluence forming a monolayer. We used a sterile 200-μl pipette tip to create a scratched clear zone on the culture dish, and the wounds photographed by a phase contrast microscope as the baseline. […] The data were expressed as mean±SD; n=3. *** indicates a significant difference at the level of p<0.001, compared to vehicle-control cells. […]

## CC(C)=CCC[C@](C)(O[C@@H]1OC(CO)[C@@H](O)[C@@H](O)C1O)[C@H]1CC[C@]2(C)C1[C@H](O)CC1[C@@]3(C)CC[C@H](O)C(C)(C)C3CC[C@]12C (stereo partly drawn) [ginsenoside M1, 20-O-β-D-glucopyranosyl-20(S)-protopanaxadiol]
[1]
  cell numbers of human oral cancer SAS cells: dose-dependently inhibited
[2]
  cells in sub-G1 phase: increased
[2]; vs control cells
  cells in G1 phase: increased in a concentration-dependent manner
  percentage of cells in S and G2/M phase: decreasing
[3]; 10 μg/ml
  percentage of OECM-1 cells with PI/Annexin V double positive staining: not 10 μg/ml ginsenoside M1 significantly increased
[3]; 20 μg/ml
  percentage of OECM-1 cells with PI/Annexin V double positive staining: significantly increased
[4]
  precursor of caspase-3 (pro-caspase-3) level: decrease of the precursors of caspase-3 and caspase-9 in a dose-dependent manner
  precursor of caspase-9 (pro-caspase-9) level: decrease of the precursors of caspase-3 and caspase-9 in a dose-dependent manner
[5]
  colony formation ability of SAS cells: dose-dependently inhibited
[6]; 5 μg/ml
  migration ability of SAS cells: significantly inhibited
[6]; 10 μg/ml
  migration ability of SAS cells: significantly inhibited
